Measurements from patent US11690816B2, “Unit doses for immediate release of GHB or of one of the therapeutically acceptable salts thereof, administered orally, and the use thereof to maintain alcohol abstinence” (DEBREGEAS ET ASSOCIES PHARMA, priority 2016, dated 2023).

Tests used:
[1] = patients with moderate or severe liver disease, same administered dose; cited from earlier work
[2] = AUC and CMax values dependent on the doses used; conditions: human, in vivo, oral
Description: The applicant has found the following AUC and CMax values, which are dependent on the doses used, for doses of 0.37 g, 0.75 g, 1.25 g and 1.75 g: […]

[3] = tested on: alcohol-dependent patients; assay: phase IIb/III clinical trial, maintaining of alcohol abstinence (PDA, TAC, HDD); format: in vivo, human
Method: The following doses were examined: • 0.75 g sodium oxybate three times daily—i.e. 2.25 g per day (99 patients) • 1.25 g sodium oxybate three times daily—i.e. 3.75 g per day (99 patients) • 1.75 g sodium oxybate three times daily—i.e. 5.25 g per day (99 patients) • 2.25 g sodium oxybate three times daily—i.e. 6.75 g per day (100 patients) • Placebo group (99 patients)
The unit doses, packaged in sachets, were administered via oral route in solid form, more particularly in the form of granules.
Efficacy was measured via percentage days of abstinence (PDA), reduced daily intake of alcohol (TAC) and the number of heavy drinking days (HDD). It was sought to analyse the correlation between efficacy of treatment and dose in mg/kg/d. In this respect the conversion to mg/kg/d was made using the following formula: unit dose in g of sodium oxybate×3/patient weight.
In the remainder of the present description, reference is made to two categories of alcoholic patients: • patients with mild to moderate alcohol dependence; • patients with severe to very severe alcohol dependence.

| SMILES | increase of the main pharmacokinetic parameters compared with patients not suffering from liver disease [1] | AUC(0-t) ([2]; 0.37 g dose) [ng·h/mL] | Cmax ([2]; 0.37 g dose) [ng/mL] | AUC(0-t) ([2]; 0.75 g dose) [ng·h/mL] | Cmax ([2]; 0.75 g dose) [ng/mL] | AUC(0-t) ([2]; 1.25 g dose) [ng·h/mL] | Cmax ([2]; 1.25 g dose) [ng/mL] | AUC(0-t) ([2]; 1.75 g dose) [ng·h/mL] | Cmax ([2]; 1.75 g dose) [ng/mL] | efficacy as share of the efficacy of the optimal dose ([3]; mild or moderate alcohol dependence, doses higher than 1.25 g) | unit dose of optimum efficacy (statistical models) ([3]; mildly or moderately alcohol-dependent patients without liver disease, three times daily) [g] | side effects ([3]; severe or very severe alcohol dependence without liver disease, above 1.75 g three times daily) | optimum unit dose (polynomial regression models) ([3]; severe or very severe alcohol dependence, without liver disease, three times daily) | efficacy lower than that of the optimal dose ([3]; severe or very severe alcohol dependence, doses lower than 1.25 g or higher than 1.75 g) |
| --- | --- | --- | --- | --- | --- | --- | --- | --- | --- | --- | --- | --- | --- | --- |
| O=C(O)CCCO [gamma-hydroxybutyric acid] | over 120% | – | – | – | – | – | – | – | – | – | – | – | – | – |
| O=C(O)CCCO [sodium oxybate] | – | 14800 | 11500 | 30000 | 23000 | 50000 | 39000 | 70000 | 54500 | about 20% | 0.75 | side effects become more numerous and frequent, in particular a sedative effect with nausea and marked fatigue | about 1.5 g | up to 80% |
